In publication PMC11527973, “Efficient characterization of multiple binding sites of small molecule imaging ligands on amyloid-beta, tau and alpha-synuclein” (European Journal of Nuclear Medicine and Molecular Imaging, 2024):
pEC50: −log10 of the molar value.

Assays:
[1] = biological target: T1, pS129-positive αSyn inclusions (Mus musculus, UniProt O55042); assay: Immunofluorescence staining and colocalization, αSyn PFF-injected mouse brain; conditions: for M1, fraction of A overlapping B / M2, fraction of B overlapping A: Manders' coefficient, αSyn PFF injected mouse, antibody (A) pS129, ligand (B); for Colocalization of ligand with pS129 signal: αSyn-PFF-injected mice, 12 weeks after injection, PPN, periaqueductal gray, SNc, nucleus accumbens
T1 construct: from tissue; host or cells: brain of αSyn PFF-injected C57BL/6J mice

[2] = biological target: recombinant K18 tau fibrils (Homo sapiens, UniProt P10636); assay: Fluorescence assay of ligands with K18 tau fibrils; type: binding; design: made in house; host or cells: E. coli; conditions: ligand bound to K18 tau fibrils; emission peaks
Chain of recombinant K18 tau fibrils (P10636 561-685 limits assumed): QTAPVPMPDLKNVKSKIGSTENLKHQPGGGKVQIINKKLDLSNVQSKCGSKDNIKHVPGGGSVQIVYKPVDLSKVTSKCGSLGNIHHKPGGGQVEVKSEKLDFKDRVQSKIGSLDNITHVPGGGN
Source text: (§1) Recombinant Aβ42, K18-tau, full-length 2N4R tau (441 aa) and αSyn were expressed and measured for binding with fluorescent ligands as described previously (details in the supplementary material).
(§2) Recombinant Aβ42, K18 tau, full-length 2N4R tau (441 aa) and αSyn were expressed and produced by E. coli as described previously. As a substrate for HRP, Pierce ECL and Western blotting substrate (Thermo Fisher Scientific, U.S.A.) were used to detect Aβ42 and αSyn. To detect K18 tau, ECL Prime Western blotting detection reagents (Cytiva, U.S.A.) were used. Images of the resulting blots were taken with an ImageQuant LAS 4000 (GE Healthcare). […] For Aβ42, the quantity was 3.7 μg because of a higher dilution. […] K18 tau was detected using a monoclonal tau antibody (anti-tau 4-repeat isoform RD4, clone 1E1/A6). Aβ42 was detected with a monoclonal Aβ antibody (clone BAM-10), and αSyn was detected using a monoclonal αSyn antibody (clone Syn211). […] After incubation of the protein solutions, fibrillization was verified by thioflavin T fluorescence assay: 45 μL of thioflavin T (5 μM, Sigma Aldrich, U.S.A.) was mixed with either 2 μL of the incubated αSyn, 5 μL of K18 tau, full-length 2N4R tau or 5 μL of Aβ42 in a 45 µL quartz cuvette (quartz […] Ultra-Micro Cell, Hellma GmbH, Germany).

recombinant αSyn fibrils [3] = biological target: T2, recombinant αSyn fibrils (Homo sapiens, UniProt P37840); assay: SPR binding kinetics on immobilized αSyn fibrils; conditions: surface CMD200M, surface density 2940-3400 RU, sum2exp model, two components (lines) per analyte; for kon: read-out: ka, rate constant of association
T2 construct: made in house; host or cells: E. coli
Description: SPR measurements were conducted in HEPES-buffered saline (HBS, Teknova, USA) buffer at 20 °C using Biacore instruments T200 and S200 (Cytiva, Uppsala, Sweden). Aβ42, tau, and αSyn recombinant fibrils were immobilized in the flow cell of sensor chips produced by Xantec (Düsseldorf, Germany) and Cytiva by coupling fibril amine groups to sulfo-N-hydroxysuccinimide (sulfo-NHS)-activated carboxylic acid groups on the chip surface. Since no nonbinding fibril(s) were available, the reference flow cell remained empty. Different chip surfaces, including the carboxymethylated dextran surface CM5 (Cytiva, Sweden), the carboxymethyldextran hydrogel surface CMD200M, the linear polycarboxylate hydrogel surface HC30M and HC1500M, the linear polycarboxylate hydrogel (reduced charge) surface HLC30M, and the zwitterionic hydrogel surface ZC150D (all from Xantec, Germany), were tested to obtain a high immobilization density and low nonspecific adsorption of ligands. All steps for surface preparation and immobilization were conducted at a flow rate of 5 µL/min. The surface carboxylic acid groups were activated with 0.2 M sulfo-NHS and 0.1 M 1-ethyl-3-(3-dimethylaminopropyl)carbodiimide (EDC, Xantec) (CM5 and CMD200M: 0.05 M) in 5 mM 2-(N-morpholino)ethanesulfonic acid (MES buffer, abcr Swiss AG, Switzerland) at pH 5.0 for 550 s (CM5 and CMD200M: 180 s) using 5 mM MES (pH 6.5) as the running buffer. K18-tau and αSyn fibrils were diluted to 2.5–10 µM in 5 mM acetate buffer (Fisher Scientific, Switzerland) at pH 4.5 and coupled for 750 s at a flow rate of 5 µL/minute on all surfaces except for ZD150D. Surfaces were blocked with 1 M ethanolamine (Xantec, Germany) for 500 s. On the ZC150D chip, K18-tau, αSyn and Aβ42 were immobilized at 2.5–10 µM in 5 mM MES, pH 6.5, for 750 s to a surface activated with 0.5 M EDC and 0.1 M sulfo-NHS for 600 s in 5 mM MES, pH 6.5. Finally, the surface was blocked with 1 M glycine in 10 mM MES, pH 6.5.

recombinant Aβ42 fibrils [4] = biological target: T3, recombinant Aβ42 fibrils (Homo sapiens, UniProt P05067); assay: Fluorescence assay of ligands with Aβ42 fibrils; type: binding; conditions: ligand bound to Aβ42 fibrils; emission peaks
T3 construct: Recombinant Aβ42, K18-tau, full-length 2N4R tau (441 aa) and αSyn were expressed; made in house; host or cells: E. coli
T3 sequence (P05067 672-713 limits assumed): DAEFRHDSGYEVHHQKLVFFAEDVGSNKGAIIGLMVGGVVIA
Source text: as §1, §2

[5] = biological target: T4, tau inclusions (AT-8/AT-100 positive) (Homo sapiens, UniProt P10636, P618L); assay: Immunofluorescence staining and colocalization, pR5 mouse brain; conditions: for M1, fraction of A overlapping B / M2, fraction of B overlapping A: Manders' coefficient, pR5 mouse
T4 construct: from tissue; host or cells: brain (cortex, hippocampus) of pR5 transgenic mice
T4 sequence (P10636 1-441 isoform P10636-8 P301L): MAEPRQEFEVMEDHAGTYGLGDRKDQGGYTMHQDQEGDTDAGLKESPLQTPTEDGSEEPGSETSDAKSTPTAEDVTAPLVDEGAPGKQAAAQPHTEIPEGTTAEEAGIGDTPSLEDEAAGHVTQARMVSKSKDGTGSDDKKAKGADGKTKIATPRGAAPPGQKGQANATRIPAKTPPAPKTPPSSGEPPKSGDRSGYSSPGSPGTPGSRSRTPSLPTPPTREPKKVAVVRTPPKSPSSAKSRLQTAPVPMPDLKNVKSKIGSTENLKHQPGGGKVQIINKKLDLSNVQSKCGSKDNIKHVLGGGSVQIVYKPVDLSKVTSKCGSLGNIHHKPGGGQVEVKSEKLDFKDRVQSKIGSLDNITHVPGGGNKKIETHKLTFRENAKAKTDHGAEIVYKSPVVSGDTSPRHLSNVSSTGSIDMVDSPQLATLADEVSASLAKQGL

recombinant αSyn fibrils [6] = biological target: T2, recombinant αSyn fibrils; assay: Fluorescence assay of ligands with αSYN fibrils; type: binding; conditions: ligand bound to αSYN fibrils; emission peaks
Source text: as §1, §2

[7] = biological target: T5, pS129-positive αSyn inclusions (Homo sapiens, UniProt P37840); assay: Immunofluorescence staining and colocalization, PD patient brain slices; conditions: for M1, fraction of A overlapping B / M2, fraction of B overlapping A: Manders' coefficient, sample PD, antibody (A) pS129, ligand (B); for Ligand detection of αSyn inclusions: medulla oblongata tissue slices from two PD patients, costained with pS129 antibody
T5 construct: tissue Netherlands Brain Bank; host or cells: postmortem PD brain, medulla oblongata
Source text: Two PD patients, each with a clinical diagnosis confirmed by pathological examination of Lewy bodies (Braak LB 6, without tau and Aβ), were included in this study (detailed information in Table 1). Paraffin-embedded autopsied brain tissues from the medulla oblongata and cerebellum with high αSyn inclusion accumulation were obtained from the Netherlands Brain Bank (NBB), Netherlands (Table 2).
The details on the antibodies and ligand concentrations are described in STable 1. 2. Human paraffin-embedded brain sections (3 µm) were deparaffinized and rehydrated prior to antigen retrieval step (citrate buffer pH 6.0) in a microwave for 20 min at 98 °C. The sections were then costained with anti-αSyn (phospho-S129, pS129) antibody plus fluorescent secondary antibody. Ligands were incubated after secondary antibody incubation for 30 min. Sections were counterstained using 4’,6-diamidino-2-phenylindole (DAPI). Mouse brains were embedded in tissue freezing media (OCT Compound, Tissue Tek, USA) and cut into 30–40 μm thick consecutive coronal sections using a cryostat microtome (CM3050 S, Leica, Germany). All sections spanning the complete rostrocaudal extent of the brain were kept in the correct order and stored at 4 °C in cryoprotect solution (1:1:3 volume ratio of ethylenglycol, glycerol and 0.1 M PBS) until further processing. Anti-αSyn pS129 antibodies, anti-phospho-tau antibodies (AT-8, AT-100), or anti-Aβ1-16 antibody 6E10 plus fluorescent secondary antibody were used as previously described on brain slices from αSyn PFF-injected mice, arcAβ mice, and pR5 mice. Ligands were incubated with secondary antibody for 30 min. Sections were counterstained with DAPI. The brain sections were imaged at 20 × magnification using an Axio Observer Z1 microscope (whole brain slide scanner) and at 63 × magnification using a Leica SP8 confocal microscope (Leica, Germany) for colocalization. It took approximately 1–1.5 h to acquire the tilted human brain slices by a slide scanner in our experiment (20 ×). The time varied depending on the size of the sample. Lambda scans were performed using a Leica SP8 confocal microscope for the emission spectrum of the ligands on the staining as previously described to validate the signal. The images were analyzed using Qupath and Fiji (NIH, U.S.A.). Colocalization analysis of the confocal microscopy images (probe and antibody channels) was performed by using Fiji, and Manders' coefficients (M1, M2) were computed.

recombinant Aβ42 fibrils [8] = biological target: T3, recombinant Aβ42 fibrils; assay: SPR binding kinetics on immobilized Aβ42 fibrils; conditions: surface ZC150D, surface density 1770 RU, sum2exp model, two components per analyte
Description: (§3) SPR measurements were conducted in HEPES-buffered saline (HBS, Teknova, USA) buffer at 20 °C using Biacore instruments T200 and S200 (Cytiva, Uppsala, Sweden). Aβ42, tau, and αSyn recombinant fibrils were immobilized in the flow cell of sensor chips produced by Xantec (Düsseldorf, Germany) and Cytiva by coupling fibril amine groups to sulfo-N-hydroxysuccinimide (sulfo-NHS)-activated carboxylic acid groups on the chip surface. Since no nonbinding fibril(s) were available, the reference flow cell remained empty. […]
(§4) The immobilized fibrils were stable for a few days. Kinetic constants for binding were determined by injection of a dilution series of 5–8 concentrations of ligand in HBS buffer at a flow rate of 30 µL/minute in duplicate ("full kinetics").
(§5) The data was evaluated using BiaEvaluate v2.03 software (Cytiva, Sweden). Binding kinetics were analyzed globally using different kinetic models, including 1 + 1, a sum of two exponentials model ("heterogeneous ligand" in terms of BiaEvaluate, sum2exp), and a sum of three exponentials model (sum3exp) that was created using the script editor of the software.

[9] = biological target: T6, recombinant full-length 2N4R tau fibrils (Homo sapiens, UniProt P10636); assay: SPR binding kinetics on immobilized full-length 2N4R tau fibrils; conditions: surface ZC150D, surface density 2900 RU, sum2exp model, two components per analyte
T6 construct: full-length 2N4R tau (441 aa); made in house; host or cells: E. coli
T6 sequence (P10636 1-441 isoform P10636-8): as the sequence (P10636 1-441 isoform P10636-8 P301L) above, with L301P counted along it
Description: [The source words this procedure for another variant and reports this variant under the same test.] as §3, §4, §5

recombinant Aβ42 fibrils [10] = biological target: T3, recombinant Aβ42 fibrils; design: method as in PMID 27767229; conditions: read-out: EC50, competition with [^3H]X-34; cited from earlier work
[11] = antibody (A) AT-100, ligand (B)

Row | Compound | M1, fraction of A overlapping B [1] | M2, fraction of B overlapping A [1] | Colocalization of ligand with pS129 signal [1] | Emission wavelength [2] | ka, rate constant of association (recombinant αSyn fibrils [3]) | kon (recombinant αSyn fibrils [3]) | Emission wavelength (recombinant Aβ42 fibrils [4]) | M1, fraction of A overlapping B ([5]; antibody (A) AT-8, ligand (B)) | M2, fraction of B overlapping A ([5]; antibody (A) AT-8, ligand (B)) | Emission wavelength (recombinant αSyn fibrils [6]) | M1, fraction of A overlapping B [7] | M2, fraction of B overlapping A [7] | Ligand detection of αSyn inclusions [7] | ka, rate constant of association (recombinant Aβ42 fibrils [8]) | ka, rate constant of association [9] | M1, fraction of A overlapping B [5, 11] | M2, fraction of B overlapping A [5, 11] | Ligand detection of tau inclusions ([5]; pR5 mice, cortex and hippocampus, costained with AT-8) | pEC50 (recombinant Aβ42 fibrils [10])
1 | O=C(O)Cc1cc(-c2ccc(-c3cc(CC(=O)O)c(-c4ccc(C(=O)O)s4)s3)s2)sc1-c1ccc(C(=O)O)s1 [HS-84] | 0.839 | 0.838 | Colocalization | – | – | – | – | – | – | – | – | – | – | – | – | – | – | – | –
2 | O=C(O)Cc1cc(-c2ccc(-c3cc(CC(=O)O)c(-c4ccc(C(=O)O)s4)s3)c3nsnc23)sc1-c1ccc(C(=O)O)s1 [HS-169] | 0.673 | 0.84 | Colocalization | 640 nm | 1.45E + 05 M^−1 s^−1 | 288000 M⁻¹ s⁻¹ | 650 nm | 0.164 | 0.279 | 643 nm | 0.81 | 0.866 | bound to pS129-positive αSyn inclusions | – | – | – | – | – | –
3 | Cc1c(OCC(F)(F)F)ccnc1C[S+]([O-])c1nc2ccccc2[nH]1 (stereo not drawn) [Lan, lansoprazole] | – | – | – | – | – | – | – | – | – | – | – | – | – | lower than 10^3 M^−1 s^−1 | lower than 10^3 M^−1 s^−1 | – | – | – | –
4 | CC[n+]1c(/C=C/C=C/c2ccc(N(C)C)cc2)sc2ccccc21 [PBB5] | – | – | – | 688 nm | – | – | 695 nm | 0.39 | 0.09 | 690 nm | – | – | – | – | – | 0.024 | 0.018 | confirmed the presence of PBB5 in tau inclusions | –
5 | O=C(O)Cc1cc(-c2ccc(-c3ccc(C(=O)O)s3)s2)sc1-c1ccc(-c2sc(-c3ccc(-c4ccc(C(=O)O)s4)s3)cc2CC(=O)O)s1 [h-FTAA, Hepta-formylthiophene acetic acid] | – | – | – | – | 111000 M⁻¹ s⁻¹ | 162000 M⁻¹ s⁻¹ | – | 0.215 | 0.07 | – | 0.404 | 0.4 | bound to pS129-positive αSyn inclusions | – | – | 0.459 | 0.16 | – | ~6.60
